Test results taken from patent US11684616B2, “Azalactam compounds as HPK1 inhibitors” (PFIZER INC., priority 2020, dated 2023).
Read-outs that look alike come from different tables or passages of the source.

How the values were obtained:
[1] = test system: Phospho-SLP-76 (Ser376) in Jurkat cells; test: Phospho-SLP-76 (Ser376) HTRF assay in anti-CD3 stimulated Jurkat cells; format: cell-based; settings: 30 min pre-treatment, anti-CD3 stimulation 15 min, read-out: pSLP76 IC50
Protocol: Cell Based Assays Phospho-SLP-76 (Ser376) Homogeneous Time Resolved Fluorescence (HTRF) Assay
Jurkat cells were seeded at 90,000 cells/well in 90 uL of RPMI1640 growth medium containing 10% FBS and incubated at 37° C. with 5% CO2 overnight. The following day, compounds were serially diluted from a 10 mM top dose for an 11-point 3-fold dilution curve in DMSO. Compounds were intermediately diluted 1:100 into growth media prior to diluting 1:10 on cells for final concentration 10 μM to 0.1 nM in 0.1% DMSO. After 30 min pre-treatment with compounds, the cells were stimulated using 200 μg/mL of F(ab)2 complexed anti-CD3 (clone UCTH1) for 15 min at 37° C. with 5% CO2. Stimulation was stopped with ice cold PBS and cells were harvested by centrifugation before lysis in Cisbio lysis buffer (Cisbio, Bedford, Mass.). Lysates were transferred to white, low-volume plates containing anti-phospho-SLP-76-Cryptate plus anti-phospho-SLP-76-d2 HTRF antibodies and incubated overnight at room temperature protected from light according to the manufacturer's protocol (Cisbio, Bedford, Mass.). HTRF was measured on a Perkin Elmer Envision and IC50 values were calculated by concentration-response curve fitting utilizing four-parameter nonlinear regression analyses.

[2] = biological target: human full-length autophosphorylated recombinant HPK1 (Homo sapiens (Human), UniProt Q92918); test: HPK1 biochemical enzyme assay (chelation-enhanced fluorescence, CHEF); settings: 0.5 nM HPK1, 45 μM ATP, Morrison fit
Sequence of human full-length autophosphorylated recombinant HPK1 (Q92918 other isoform, or with tags, fused parts or gaps): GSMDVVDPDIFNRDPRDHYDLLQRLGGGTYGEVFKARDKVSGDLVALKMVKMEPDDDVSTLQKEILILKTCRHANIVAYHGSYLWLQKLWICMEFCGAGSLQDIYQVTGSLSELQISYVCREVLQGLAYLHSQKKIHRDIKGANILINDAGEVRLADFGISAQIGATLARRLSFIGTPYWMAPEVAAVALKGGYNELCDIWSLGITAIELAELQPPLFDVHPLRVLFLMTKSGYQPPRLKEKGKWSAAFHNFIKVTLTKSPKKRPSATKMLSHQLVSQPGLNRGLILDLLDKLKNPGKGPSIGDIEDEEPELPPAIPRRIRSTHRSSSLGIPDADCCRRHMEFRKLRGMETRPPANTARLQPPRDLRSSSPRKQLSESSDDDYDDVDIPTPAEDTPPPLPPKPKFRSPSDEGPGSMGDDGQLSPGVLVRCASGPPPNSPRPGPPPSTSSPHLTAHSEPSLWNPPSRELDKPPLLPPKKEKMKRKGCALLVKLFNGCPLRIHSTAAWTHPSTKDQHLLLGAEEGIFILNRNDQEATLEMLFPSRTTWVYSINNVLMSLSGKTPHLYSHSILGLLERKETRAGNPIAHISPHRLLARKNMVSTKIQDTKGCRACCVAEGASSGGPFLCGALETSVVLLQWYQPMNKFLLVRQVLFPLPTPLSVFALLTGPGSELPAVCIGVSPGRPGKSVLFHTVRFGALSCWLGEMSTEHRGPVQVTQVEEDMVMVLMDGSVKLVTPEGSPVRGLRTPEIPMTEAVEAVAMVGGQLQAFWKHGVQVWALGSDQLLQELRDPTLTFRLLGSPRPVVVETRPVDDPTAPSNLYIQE
Protocol: HPK1 Biochemical Enzyme Assay
HPK1 enzyme inhibition was measured by using the fluorescence-based chelation-enhanced fluorescence (CHEF) method (1), and by using a proprietary fluorescent peptide substrate, in which a cysteine residue is alkylated with a sulfonamido-oxine-based derivative to afford an amino acid termed C-Sox (CSx). […] Initial reaction velocities were determined by following the peptide fluorescence (λex=360 nm, λem=500 nm) at 30° C. for 15 min in a Tecan M1000 plate reader (Tecan Group Ltd., Mannedorf, Zurich, Switzerland).
Production of Autophosphorylated Full-Length Recombinant HPK1
The DNA sequence encoding full-length human HPK1 (Genbank NM_001042600.2) was synthesized at GenScript and contained a limited number of silent base changes to eliminate certain restriction endonuclease enzyme recognition sites, and fused to a DNA sequence encoding a Tobacco Etch Virus (TEV)-cleavable N-terminal polyhistidine purification tag. A recombinant baculovirus was prepared by using the Bac-to-Bac method (InVitrogen) and was used to infect 9 L of Sf21 insect cells. All purification steps were carried out at 4° C. Cells containing recombinant HPK1 were lysed in 50 mM HEPES-NaOH, pH 7.5, 250 mM NaCl, 1 mM tris(2-carboxyethyl)phosphine (TCEP), 10 μM leupeptin (Sigma), 10 μM E-64 (Sigma), and one ‘EDTA-free’ protease inhibitor tablet (Roche) per 75 mL buffer, centrifuged at 15,000×g for 1 h and the supernatant passed over 5 mL of ProBond IMAC resin (InVitrogen). After washing, HPK1 was eluted with 12.5 mL of 50 mM HEPES-NaOH, pH 7.5, 400 mM NaCl, 250 mM imidazole-HCl pH 7.5, 1 mM TCEP, 2 μM leupeptin, and 2 μM E-64. The eluted HPK1 was dialyzed overnight against 0.8 L of 50 mM HEPES-NaOH, pH 7.5, 400 mM NaCl, 20 mM imidazole-HCl pH 7.5, 1 mM TCEP, 2 μM leupeptin, 2 μM E-64, 2 mM ATP-NaOH pH 7.3, 5 mM MgCl2 and 1 mg TEV (this step simultaneously allows for reduction of the imidazole concentration in preparation for the subsequent reverse IMAC chromatography step, removal of the polyhistidine purification tag by TEV protease, and autophosphorylation of HPK1 in the presence of MgATP). The de-tagged and autophosphorylated HPK1 was adjusted to 40 mM imidazole-HCl, pH 7.5, and passed through a 10 mL column of ProBond resin similarly equilibrated. […] The peak fractions containing HPK1 were pooled and concentrated to approximately 2.5 mL by using a centrifugal concentrator (Millipore). The concentrated HPK1 was adjusted to 20% (v/v) glycerol by the addition of 50% (v/v) glycerol, resulting in a final formulation of 25 mM HEPES-NaOH pH 7.5, 250 mM NaCl, 0.25 mM TCEP and 20% (v/v) glycerol. […] Aliquots of the enzyme were flash frozen in liquid nitrogen and stored at −80° C. The final product contains a glycine-serine extension at the N-terminus of the full-length protein, as a result of the cloning strategy.

Row | IC50 ([1]; Homo sapiens, Jurkat) [nM] | Ki [2] [nM] | IC50 [1] [nM] | SMILES
1 | 59 | 0.11 | – | CCn1cnnc1-c1cccc(N2Cc3c(cc(N4CCC[C@H]4C)nc3[C@H](C)N)C2=O)n1 (single isomer, unassigned) [Example 150]
2 | 332 | – | – | CCCn1cnnc1-c1cccc(N2Cc3c(cc(N(C)C)nc3[C@@H](C)N)C2=O)n1 [Example 138, 4-[(1R)-1-aminoethyl]-6-(dimethyl-amino)-2-[6-(4-propyl-4H-1,2,4-triazol-3-yl)pyridin-2-yl]-2,3-dihydro-1H-pyrrolo[3,4-c]pyridin-1-one]
3 | – | 3.14 | – | CC[C@@H](N)c1nc(N(C)C)cc2c1CN(c1cccc(-c3nncn3CC)n1)C2=O (stereo in doubt) [Example 146, 4-[(1ξ)-1-aminopropyl]-6-(dimethyl-amino)-2-[6-(4-ethyl-4H-1,2,4-triazol-3-yl)pyridin-2-yl]-2,3-dihydro-1H-pyrrolo[3,4-c]pyridin-1-one]
4 | – | 0.44 | – | CC[C@H](N)c1nc(N2CCC[C@H]2C)cc2c1CN(c1cccc(-c3nncn3CC)n1)C2=O [Example 141, 4-[(1S)-1-aminopropyl]-2-[6-(4-ethyl-4H-1,2,4-triazol-3-yl)pyridin-2-yl]-6-[(2R)-2-methylpyrroli-din-1-yl]-2,3-dihydro-1H-pyrrolo[3,4-c]pyridin-1-one]
5 | – | 1.29 | – | CC[C@@H]1CCc2nnc(-c3cccc(N4Cc5c(cc(N(C)C(C)C)nc5CNC)C4=O)n3)n21 [Example 204, 2-{6-[(5R)-5-ethyl-6,7-dihydro-5H-pyrrolo[2,1-c] [1,2,4]triazol-3-yl]pyridin-2-yl}-4-[(methyl-amino)methyl]-6-[methyl (propan-2-yl)amino]-2,3-dihydro-1H-pyrrolo[3,4-c] pyridin-1-one]
6 | – | 1.41 | – | CCN(C)c1cc2c(c([C@@H](C)N)n1)CN(c1cccc(-c3nnc(C)n3CC)n1)C2=O (stereo in doubt) [Example 127, 4-[(1ξ)-1-aminoethyl]-6-[ethyl(methyl)amino]-2-[6-(4-ethyl-5-methyl-4H-1,2,4-triazol-3-yl)pyridin-2-yl]-2,3-dihydro-1H-pyrrolo[3,4-c]pyridin-1-one]
7 | – | 2.68 | – | CC[C@@H]1CCc2nnc(-c3cccc(N4Cc5c(cc(N(C)C)nc5CNC)C4=O)n3)n21 [Example 207, 6-(dimethyl-amino)-2-{6-[(5R)-5-ethyl-6,7-dihydro-5H-pyrrolo[2,1-c] [1,2,4]triazol-3-yl]pyridin-2-yl}-4-[(methyl-amino)methyl]-2,3-dihydro-1H-pyrrolo[3,4-c] pyridin-1-one]
8 | 189 | – | – | CCCn1cnnc1-c1cccc(N2Cc3c(cc(N(C)C)nc3[C@H](C)N)C2=O)n1 [Example 137, 4-[(1S)-1-aminoethyl]-6-(dimethyl-amino)-2-[6-(4-propyl-4H-1,2,4-triazol-3-yl)pyridin-2-yl]-2,3-dihydro-1H-pyrrolo[3,4-c]pyridin-1-one]

Second part, the molecule before the results:

Row | SMILES | IC50 ([1]; Homo sapiens, Jurkat) [nM] | Ki [2] [nM] | IC50 [1] [nM]
9 | CC(C)N(C)c1cc2c(c([C@@H](C)N)n1)CN(c1cccc(-c3nnc4n3[C@@H](C)CC4)n1)C2=O [Example 21, 4-[(1R)-1-aminoethyl]-2-{6-[(5S)-5-methyl-6,7-dihydro-5H-pyrrolo[2,1-c][1,2,4]triazol-3-yl]pyridin-2-yl}-6-[methyl(propan-2-yl)amino]-2,3-dihydro-1H-pyrrolo[3,4-c]pyridin-1-one] | 46 | – | –
10 | COC[C@@H](N)c1nc(C2(C)CC2)cc2c1CN(c1cccc(-c3nnc4n3[C@@H](C)CC4)n1)C2=O [Example 6b, 4-[(1)-1-amino-2-methoxyethyl]-6-(1-methylcyclopropyl)-2-{6-[(5S)-5-methyl-6,7-dihydro-5H-pyrrolo[2,1-c][1,2,4]triazol-3-yl]pyridin-2-yl}-2,3-dihydro-1H-pyrrolo[3,4-c]pyridin-1-one] | – | – | 641
11 | CC[C@H]1CCc2nnc(-c3cccc(N4Cc5c(cc(N6CCC[C@H]6C)nc5[C@@H](N)CC)C4=O)n3)n21 [Example 15, 4-[(1S)-1-aminopropyl]-2-{6-[(5ξ)-5-ethyl-6,7-dihydro-5H-pyrrolo[2,1-c][1,2,4]triazol-3-yl]pyridin-2-yl}-6-[(2R)-2-methylpyrroli-din-1-yl]-2,3-dihydro-1H-pyrrolo[3,4-c]pyridin-1-one] | – | 8.47 | –
12 | CCC(CC)n1cnnc1-c1cccc(N2Cc3c(cc(C4(C)CC4)nc3[C@@H](C)N)C2=O)n1 (stereo in doubt) [Example 126, 4-[(1ξ)-1-aminoethyl]-6-(1-methyl-cyclopropyl)-2-{6-[4-(pentan-3-yl)-4H-1,2,4-triazol-3-yl]pyridin-2-yl}-2,3-dihydro-1H-pyrrolo[3,4-c]pyridin-1-one] | – | 1.78 | –
13 | CC[C@@H](N)c1nc(N(C)C(C)C)cc2c1CN(c1cccc(-c3nnc4n3[C@@H](C)CC4)n1)C2=O [Example 5] | 31 | – | –
14 | CC[C@@H](N)c1nc(C2(C)CC2)cc2c1CN(c1cccc(-c3nncn3C3CCC3)n1)C2=O (stereo in doubt) [Example 105, 4-[(1ξ)-1-aminopropyl]-2-[6-(4-cyclobutyl-4H-1,2,4-triazol-3-yl)pyridin-2-yl]-6-(1-methylcyclo-propyl)-2,3-dihydro-1H-pyrrolo[3,4-c]pyridin-1-one] | – | 2.01 | –
15 | C[C@@H](N)c1nc(C2(C)CC2)cc2c1CN(c1cccc(-c3nncn3C3CCC3)n1)C2=O (stereo in doubt) [Example 103, 4-[(1ξ)-1-aminoethyl]-2-[6-(4-cyclobutyl-4H-1,2,4-triazol-3-yl)pyridin-2-yl]-6-(1-methylcyclo-propyl)-2,3-dihydro-1H-pyrrolo[3,4-c]pyridin-1-one] | – | 1.38 | –
16 | C[C@@H]1CCCN1c1cc2c(c([C@@H](C)N)n1)CN(c1cccc(-c3nnc4n3[C@@H](C)CC4)n1)C2=O [Example 24, 4-[(1ξ)-1-aminoethyl]-2-{6-[(5ξ)-5-methyl-6,7-dihydro-5H-pyrrolo[2,1-c][1,2,4]triazol-3-yl]pyridin-2-yl}-6-[(2R)-2-methylpyrroli-din-1-yl]-2,3-dihydro-1H-pyrrolo[3,4-c]pyridin-1-one] | – | 1.76 | –
17 | CC[C@@H]1CCc2nnc(-c3cccc(N4Cc5c(cc(N6CCC[C@H]6C)nc5[C@H](C)N)C4=O)n3)n21 [Example 8, 4-[(1S)-1-aminoethyl]-2-{6-[(5R)-5-ethyl-6,7-dihydro-5H-pyrrolo[2,1-c][1,2,4]triazol-3-yl]pyridin-2-yl}-6-[(2R)-2-methylpyrroli-din-1-yl]-2,3-dihydro-1H-pyrrolo[3,4-c]pyridin-1-one] | – | 5.6 | –
18 | COC[C@@H](N)c1nc(C2(C)CC2)cc2c1CN(c1cccc(-c3nnc4n3[C@@H](C)CC4)n1)C2=O [Example 6a, 4-[(1)-1-amino-2-methoxyethyl]-6-(1-methylcyclopropyl)-2-{6-[(5S)-5-methyl-6,7-dihydro-5H-pyrrolo[2,1-c][1,2,4]triazol-3-yl]pyridin-2-yl}-2,3-dihydro-1H-pyrrolo[3,4-c]pyridin-1-one] | – | – | 69
19 | CCC(CC)n1cnnc1-c1cccc(N2Cc3c(cc(C4(C)CC4)nc3[C@H](C)N)C2=O)n1 (stereo in doubt) [Example 125, 4-[(1ξ)-1-aminoethyl]-6-(1-methyl-cyclopropyl)-2-{6-[4-(pentan-3-yl)-4H-1,2,4-triazol-3-yl]pyridin-2-yl}-2,3-dihydro-1H-pyrrolo[3,4-c]pyridin-1-one] | – | 1.42 | –
